Columns and labels:
Settings in all cases: human, in vivo
Presbyopic subjects [1] = system: Presbyopic subjects
Presbyopic subjects [2] = system: Presbyopic subjects; remark: listed apart in the source
Presbyopic subjects [3] = system: Presbyopic subjects; remark: listed apart in the source

## CN(C)C(=O)Oc1cccc([N+](C)(C)C)c1 [compound 1, neostigmine]
Presbyopic subjects [1]
  share of the subjects with no tolerance problems: One third
  time until symptoms gradually alleviated: 30 min

## CNC(=O)Oc1ccc2c(c1)[C@]1(C)CCN(C)[C@@H]1N2C [compound 2, physostigmine]
Presbyopic subjects [2]
  improvement of distance corrected near visual acuity, 0.25% eye drops compared with 1.5% eye drops: more than 1.5% compound 2 eye drops
Presbyopic subjects [3]
  effect on miosis, 0.25% eye drops compared with 1.5% eye drops: more than 1.5% compound 2 eye drops
  time at which efficacy reached the highest level: 2 h
  time at which efficacy was still present: ≥ 6 h
Presbyopic subjects [1]
  duration of eye twitching: 15 min
  duration of eyelid and eyeball twitching: 15 min
  duration of headache: 1 to 2 h
  duration of slightly inflexible eye mobility: 3 to 4 h
  onset of eye twitching: 15 min
  onset of eyelid and eyeball twitching: 15 min
  time until eye irritation disappeared: 10 min
  upper eyelid and eyeball adherence and mobility: The upper eyelid and the eyeball were adhered tightly, and the mobility of the upper eyelid and eyeball was slightly weakened

## CN(CCCCCCCCCCN(C)C(=O)Oc1cccc([N+](C)(C)C)c1)C(=O)Oc1cccc([N+](C)(C)C)c1 [compound 3, Demecarium bromide]
Presbyopic subjects [1]
  duration of eye discomfort and conjunctival congestion: 2 to 3 days
  ocular tolerance: Half of the subjects began to suffer from eye discomfort and conjunctival congestion after several hours
  share of the subjects with no eye discomfort: half

From patent publication US20210308102A1 (priority 2018, published 2021)
